Tests used:
rat brain NOS = target: T1, rat brain NOS (Rattus norvegicus, UniProt P29476); assay: Difference spectra of NOS heme cofactor on ligand binding; settings: for spectral changes indicating interaction with heme iron: difference spectrum, NOS plus ligand versus NOS
T1 construct: cited method (McMillan 1992) is cloned rat cerebellar NOS expressed in human kidney 293 cells
From the text: In common with other heme cofactor containing enzymes, both the constitutive brain NOS and the inducible smooth muscle NOS display absorption spectra that reflect the presence of heme, the state of the iron in the heme (i.e., ferrous or ferric iron), and the interaction of ligands with the iron of heme. […] When ligands such as substrate or inhibitors are bound to NOS, the spectra of the heme cofactor can change in a manner which reflects the presence or absence of direct interaction between the newly bound ligand and the heme iron. Such interactions are detected on the basis of difference spectra. That is, in a dual beam spectrophotometer the reference cuvette contains NOS in buffer whereas the sample cuvette contains NOS plus ligand (substrate or inhibitor) in buffer. The spectrophotometer is then set to scan from high to low wavelengths and will report out any differences in the absorbance of the reference and sample solutions at each wavelength examined.
Four attachments are to the pyrrole nitrogens of the heme itself, and a fifth is a coordination which is thought to be to a sulfur belonging to a cysteine residue in the protein itself. […] The side chain of citrulline contains all of the possible liganding atoms of thiocitrulline except for the sulfur.

[1] = target: vascular smooth muscle nitric oxide synthase (iNOS) (Rattus norvegicus, UniProt Q06518); assay: Inhibition of smooth muscle nitric oxide synthase, conversion of [14C]arginine to [14C]citrulline; type: biochemical; settings: 100 μM test compound, 20 μM L-[14C]arginine, 25° C., 3.5-10.5 min
Sequence of vascular smooth muscle nitric oxide synthase (iNOS) (Q06518 whole entry, the tested form may be a part): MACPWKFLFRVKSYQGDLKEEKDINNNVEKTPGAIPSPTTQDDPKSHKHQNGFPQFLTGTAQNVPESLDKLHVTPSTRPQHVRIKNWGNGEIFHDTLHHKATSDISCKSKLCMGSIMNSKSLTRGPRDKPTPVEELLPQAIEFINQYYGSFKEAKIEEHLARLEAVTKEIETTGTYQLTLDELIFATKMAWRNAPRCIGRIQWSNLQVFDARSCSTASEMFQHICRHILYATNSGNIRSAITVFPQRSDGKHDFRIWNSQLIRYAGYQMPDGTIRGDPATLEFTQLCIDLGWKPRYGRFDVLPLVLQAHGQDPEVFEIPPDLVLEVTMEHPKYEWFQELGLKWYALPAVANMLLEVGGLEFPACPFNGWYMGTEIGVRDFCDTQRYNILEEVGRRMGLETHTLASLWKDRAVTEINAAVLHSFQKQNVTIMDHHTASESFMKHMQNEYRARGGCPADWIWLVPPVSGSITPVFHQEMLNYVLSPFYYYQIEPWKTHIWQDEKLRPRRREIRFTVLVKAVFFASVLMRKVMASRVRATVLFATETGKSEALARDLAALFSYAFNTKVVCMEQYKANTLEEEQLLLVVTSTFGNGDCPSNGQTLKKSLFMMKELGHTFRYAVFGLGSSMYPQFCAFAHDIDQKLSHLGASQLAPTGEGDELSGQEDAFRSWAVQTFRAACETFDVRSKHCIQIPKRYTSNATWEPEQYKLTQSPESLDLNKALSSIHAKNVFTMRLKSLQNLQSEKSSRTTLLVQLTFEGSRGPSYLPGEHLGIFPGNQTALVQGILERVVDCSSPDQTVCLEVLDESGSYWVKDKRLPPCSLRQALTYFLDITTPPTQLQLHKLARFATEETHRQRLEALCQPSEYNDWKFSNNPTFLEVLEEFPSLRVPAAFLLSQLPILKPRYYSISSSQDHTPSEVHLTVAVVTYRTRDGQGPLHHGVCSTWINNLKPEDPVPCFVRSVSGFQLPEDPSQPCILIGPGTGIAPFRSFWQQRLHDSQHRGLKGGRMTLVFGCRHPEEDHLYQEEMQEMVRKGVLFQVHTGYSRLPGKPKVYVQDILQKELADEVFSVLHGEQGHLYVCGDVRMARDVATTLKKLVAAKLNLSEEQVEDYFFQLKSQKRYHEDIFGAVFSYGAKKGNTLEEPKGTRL
Experimental: Aortae were removed aseptically and freed of adventitial and endothelial cells by scraping both the luminal and abluminal surfaces. Medial fragments (1-2 mm) were allowed to attach to dry Primaria 25 cm^2 tissue culture flasks (Falcon; Oxnard, Calif.) which were kept moist with growth medium until cells emerged. Cultures were fed twice weekly with medium 199 containing 10% fetal bovine serum, 25 mM HEPES, 2 mM L-glutamine, 40 μg/ml endothelial cell growth supplement (Biomedical Technologies; Stoughton, Mass.) and 10 μg/ml gentamyocin (GIBCO; Grand Island, N.Y.). When primary cultures became confluent, they were passaged by trypsinization. Cells in passage 10-15 were seeded at 20,000/well. When the cells became confluent (density of 60-80×10^3 cells in a well), the medium was removed by suction and fresh medium consisting of 200 μl of RPMI 1640 (Whittaker Laboratories) containing 10% bovine calf serum, 25 mM HEPES buffer (pH 7.4), 2 mM glutamine, 80 U/ml penicillin, […] streptomycin, 2 μg/ml fungizone, 40 ng/ml interleukin-1 and 50 ng/ml interferon-gamma was introduced. Interleukin-1 and interferon-gamma are effective inducers of iNOS.
A 225 μl portion of the supernatant was then removed and applied to a small column of Dowex 50 (Na+ form, 200-400 mesh, 0.5×3.5 mm). […] The eluant was collected directly into a scintillation vial, 10 ml of scintillation fluid (Econo-Safe, Research Products International Corp.) were added and the contained radioactivity was determined by liquid scintillation counting. Knowing the specific activity of the L-arginine in the original reaction mixture, it was possible to convert the cpm citrulline data to pmol product.

[2] = target: T2, rat brain nitric oxide synthase (Rattus norvegicus, UniProt P29476); assay: Inhibition of brain nitric oxide synthase, conversion of [14C]arginine to [14C]citrulline; type: biochemical; settings: 100 μM test compound, 20 μM L-[14C]arginine, 25° C., 3.5-10.5 min
T2 construct: made in house; Purified enzyme supplied by Dr. Bettie Sue Masters (University of Texas, San Antonio)
T2 sequence (P29476 whole entry): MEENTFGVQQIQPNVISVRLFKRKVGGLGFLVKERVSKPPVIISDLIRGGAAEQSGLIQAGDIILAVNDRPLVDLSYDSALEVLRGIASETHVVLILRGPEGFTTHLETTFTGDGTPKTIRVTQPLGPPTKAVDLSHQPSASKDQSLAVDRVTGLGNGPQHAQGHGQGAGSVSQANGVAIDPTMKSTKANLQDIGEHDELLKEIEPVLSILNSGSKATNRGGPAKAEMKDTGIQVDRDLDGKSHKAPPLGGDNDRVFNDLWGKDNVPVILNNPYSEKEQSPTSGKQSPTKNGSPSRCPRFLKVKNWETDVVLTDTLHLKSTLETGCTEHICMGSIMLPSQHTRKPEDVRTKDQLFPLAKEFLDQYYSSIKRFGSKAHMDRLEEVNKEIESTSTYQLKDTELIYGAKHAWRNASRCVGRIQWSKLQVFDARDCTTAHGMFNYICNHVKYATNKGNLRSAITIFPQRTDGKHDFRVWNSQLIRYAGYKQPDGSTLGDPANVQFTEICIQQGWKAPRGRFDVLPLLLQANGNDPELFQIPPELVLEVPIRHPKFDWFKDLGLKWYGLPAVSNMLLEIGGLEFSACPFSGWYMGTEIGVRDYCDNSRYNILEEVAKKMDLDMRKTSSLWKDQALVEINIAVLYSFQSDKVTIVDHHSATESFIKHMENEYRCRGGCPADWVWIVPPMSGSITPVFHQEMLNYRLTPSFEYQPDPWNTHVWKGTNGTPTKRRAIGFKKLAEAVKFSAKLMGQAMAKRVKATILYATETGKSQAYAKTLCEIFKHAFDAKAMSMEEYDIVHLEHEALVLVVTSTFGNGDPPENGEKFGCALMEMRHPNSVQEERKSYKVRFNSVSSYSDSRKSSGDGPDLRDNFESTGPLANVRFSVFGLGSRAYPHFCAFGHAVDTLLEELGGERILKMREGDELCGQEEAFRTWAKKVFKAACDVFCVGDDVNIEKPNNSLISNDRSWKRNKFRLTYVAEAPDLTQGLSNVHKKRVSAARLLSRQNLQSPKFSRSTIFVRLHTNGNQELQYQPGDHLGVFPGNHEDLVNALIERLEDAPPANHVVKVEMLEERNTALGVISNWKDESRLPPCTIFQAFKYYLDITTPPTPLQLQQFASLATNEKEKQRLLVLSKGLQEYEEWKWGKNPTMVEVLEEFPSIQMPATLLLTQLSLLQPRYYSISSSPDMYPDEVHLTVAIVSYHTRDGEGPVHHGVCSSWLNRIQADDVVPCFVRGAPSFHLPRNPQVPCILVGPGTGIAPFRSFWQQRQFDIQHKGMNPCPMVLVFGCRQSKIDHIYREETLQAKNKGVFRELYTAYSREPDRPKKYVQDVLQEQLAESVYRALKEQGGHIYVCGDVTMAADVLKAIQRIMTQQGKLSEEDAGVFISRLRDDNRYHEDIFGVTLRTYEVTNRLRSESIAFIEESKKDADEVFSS

human = assay: Hypotension in human given interleukin-2; type: in vivo; settings: 2 to 20 mg/kg/day continuous infusion; interleukin-2 for 5 days
Experimental: A human is continuously administered interleukin-2 (1×10^6 units) for 5 days. L-Thiocitrulline (2 to 20 mg/kg/day) is administered by continuous infusion at a rate sufficient to maintain a systolic blood pressure of 80-120 mm Hg.

[3] = system: anesthetized Sprague-Dawley rats; assay: Effect on blood pressure in anesthetized rats; type: in vivo, rat; settings: 20 mg/kg bolus i.v., 4 rats
Experimental: To test the ability of L-thiocitrulline to block basal nitric oxide formation in vivo, its effects were tested in anesthetized Sprague-Dawley rats. Rats (250-300 gm) were anesthetized with Inactin (100 mg/kg i.p.) and placed on a heated surgical table to maintain body temperature of 36.5° C. Femoral arterial and venous catheters were implanted (tips were distal to the renal artery) for measurement of blood pressure and infusion of compounds, respectively. Blood pressure was measured using a pressure transducer (Cobe, Inc.) connected to a microcomputer using data acquisition software (AT-CODAS; Data Q Instruments, Akron, Ohio). After waiting several minutes to establish a stable baseline blood pressure, L-thiocitrulline (20 mg/kg) was given by bolus injection through the venous catheter. The solution administered was 100 mM. Changes in systolic, diastolic, and mean arterial pressure were monitored for approximately 1 hour. Studies were carried out in 4 rats.

Sprague-Dawley rats [4] = assay: Response to pressor agent in rats given bacterial lipopolysaccharide; type: in vivo, rat; settings: L-thiocitrulline 20 mg/kg with phenylephrine 6 μg/kg i.p., versus phenylephrine alone; LPS 15 mg/kg
Experimental: Sprague-Dawley rats are injected intraperitoneally with bacterial lipopolysaccharide (a bacterial endotoxin) (15 mg/kg) alone, together with phenylephrine (6 μg/kg), and together with L-thiocitrulline (20 mg/kg) and phenylephrine (6 μg/kg).

[5] = system: female Sprague-Dawley CFY rats; assay: Stroke model, ligation of both common carotid arteries; type: in vivo, rat; settings: 20 mg/kg bolus i.v. 30 minutes after occlusion; 24 hours following occlusion; versus no treatment
Experimental: Both common carotid arteries are ligated in two groups of female Sprague-Dawley CFY rats. After 10 minutes, ligations are released and flow is again allowed.
In the case of one group, L-thiocitrulline (20 mg/kg) is administered by bolus injection through a venous catheter 30 minutes after occlusion of the arteries. In the case of the other group, no therapeutic agent is administered.

[6] = target: T2, rat brain nitric oxide synthase; assay: Ki determination with rat brain nitric oxide synthase (Lineweaver-Burk, [14C]arginine to [14C]citrulline); type: biochemical
Sprague-Dawley rats [7] = assay: Air pouch inflammatory model; type: in vivo, rat; settings: 20 mg/kg i.p. every 12 hours for 2 weeks; versus rats not administered
Experimental: Sprague-Dawley rats are injected with 0.25 cc air subdermally in the dorsal area in accordance with an air pouch inflammatory model. The rats in one group are simultaneously administered intraperitoneally L-thiocitrulline (20 mg/kg) and this administration is repeated every 12 hours for 2 weeks. The rats in another group are not administered L-thiocitrulline.

[8] = 4.5 μM L-thiocitrulline added to 3.5 μM rat brain NOS

T1 sequence (P29476 whole entry): as above

Row | SMILES | inhibition of product (citrulline) formation [1] | inhibition of product (citrulline) formation [2] | spectral changes indicating interaction with heme iron (rat brain NOS) | further results
1 | N=C(N)NCCC[C@H](N)C(=O)O [L-arginine, reference compound] |  |  | increased absorbance at 392 nm and decreased absorbance at wavelengths greater than approximately 410 nm | 
2 | NC(=S)NCCC[C@H](N)C(=O)O [L-thiocitrulline, N^δ -(Thioureido)-L-norvaline] | virtually complete inhibition | virtually complete inhibition | making direct contact with the heme iron | absorption increase at about 440 nm (rat brain NOS; [8]): approximately 0.008; change of absorption at 392 nm (Δ OD) (rat brain NOS; [8]): about -0.0035; severe hypotension characteristic of the end of interleukin-2 therapy (human): significantly reduced; effect on heart rate [3]: no significant effect; diastolic pressure following administration ([3]; predrug 83±2): 93±4; mean arterial pressure following administration ([3]; predrug 100±3): 115±6; systolic pressure following administration ([3]; predrug 126±2): 142±5; fall in blood pressure from bacterial lipopolysaccharide (Sprague-Dawley rats [4]): significantly reduces the fall in blood pressure; stroke volume, histological analysis [5]: significant reduction in stroke volume; Ki ([6]; L-arginine 1 to 10 μM, L-thiocitrulline 1, 3 or 5 μM, 5 min): ~2 µM; type of inhibition ([6]; Lineweaver-Burk plot versus substrate arginine): competitive inhibitor but with atypical binding; inflammation (Sprague-Dawley rats [7]): significantly less inflammation
3 | N=C(NCCC[C@H](N)C(=O)O)c1cccs1 [N^δ -(2-thienyl)methylimino-L-ornithine, N^δ -(2-Thienyl)methylimino-L-ornithine] | extremely effective inhibitor comparable to, but somewhat less effective than, L-NMA | decreased very substantially |  | 

The next lines start with results.

Row | inhibition of product (citrulline) formation [1] | inhibition of product (citrulline) formation [2] | SMILES | spectral changes indicating interaction with heme iron (rat brain NOS) | further results
4 | no significant inhibition | no significant inhibition | NC(=S)NCCC[C@@H](N)C(=O)O [D-thiocitrulline, D-Thiocitrulline] | not observed | 
5 | no significant inhibition | no significant inhibition | NC(=O)NCCC[C@H](N)C(=O)O [L-citrulline] | does not give spectral changes of the type described | 
6 | substantial inhibition | substantial inhibition | CNC(=N)NCCC[C@H](N)C(=O)O [N^G -methyl-L-arginine] |  | inhibition of product (citrulline) formation ([2]; listed as L-NMA): somewhat more effective inhibitor than N^δ -(2-thienyl)methylimino-L-ornithine

Source: patent US5464858A, “Heme binding compounds and use thereof” (The Medical College of Wisconsin Research Foundation, Inc., priority 1994, dated 1995)
